This is an account of results in US9795601B2, “Compositions and methods for cancer treatment” (BIOVISTA, INC., priority 2010, dated 2017).

The structures appear in SMILES notation.

Holding throughout (assay type): cell-based
Experiment [1] deals with A172 (Malignant glioma). Briefly: Cancer cell lines assay (Alamar Blue, day 5), A172. To be noted: Homo sapiens. As for the experimental part:
(§1) EXAMPLE. Cancer cell lines assay. Compounds are assayed for IC50 over a range of 50 nM to 1 mM, in triplicate, in standard 96-well plates. Initially, the number of cells in each line to plate on day 0 is determined, in order to have <80% confluency on day 5. Cells are plated on day 0. Cells are allowed to adhere 4 hours prior to adding the compound. On day 5 Alamar Blue is added to the media of the cells at 10% of the total volume of the well and incubated for approximately 4 hours at tissue culture conditions. The Alamar Blue reagent consists of an oxidation-reduction indicator that yields a colorimetric change and a fluorescent signal in response to metabolic activity. The dose response curves is evaluated in a BioTek Synergy 2 plate reader. The readout fluorescence values are then be exported to spreedsheet software, such as Microsoft Excel or GraphPad, and are graphed to show the reduction in relative cell number in response to compounds added to culture. Maximum inhibition is expressed as the maximum of:
(§2) [formula] over all dosages tested for each drug.
(§3) EXAMPLE. Linezolid is diluted in DMSO. One vial is thawed and administered on day 0, at concentrations 10 μM to 1 mM. Paclitaxel (0.1 μM) is used as a positive control. DMSO alone is used as a negative control. On day 5 Alamar Blue is added to the media of the cells at 10% of the total volume of the well and incubated for approximately 4 hours at tissue culture conditions.
(Alamar Blue is a resazurin reagent that responds to reducing activity.)

The subject of experiment [2] is SW-579 (Thyroid Cancer). Briefly: Cancer cell lines assay (Alamar Blue, day 5), SW-579. Conditions: SW579; SW-579 cells, Linezolid concentration 412 μM, negative control DMSO, p 0.0490; read-out: Linezolid % Maximum inhibition relative to negative control. As for the experimental part: as §1, §2
(§4) EXAMPLE. Linezolid is diluted in DMSO. One vial is thawed and administered on day 0, at concentrations 10 μM to 1 mM. Paclitaxel (0.1 μM) is used as a positive control. DMSO alone is used as a negative control. […]

Experiment [3] concerns C32 (Melanoma). Briefly: Cancer cell lines assay (Alamar Blue, day 5), C32. To be noted: Homo sapiens, C32 cells. As for the experimental part: as §1, §2, §4
For experiment [4], the system named is HT-144 (Melanoma). As to the kind of experiment: Cancer cell lines assay (Alamar Blue, day 5), HT-144. To be noted: Homo sapiens. As for the experimental part:
as §1, §2, §3

Take `CC(=O)NC[C@H]1CN(c2ccc(N3CCOCC3)c(F)c2)C(=O)O1` [Linezolid]: the IC50 (commonly the point on the concentration scale where inhibition reaches its midpoint) is 600 to 700 µM in experiment [1] (A 172, 120 h, A172 (Malignant glioma) cells, Alamar Blue on day 5, read-out: Linezolid IC50) and 500 µM in experiment [4] (120 h, HT-144 (Melanoma) cells, Alamar Blue on day 5, read-out: Linezolid IC50). Besides, the inhibition (in general, the relative decrease from the control value, in per cent) at 1000 µM in experiment [1] (A 172, A172 cells, Linezolid concentration 1 mM, negative control DMSO, p 6 × 10^−6, read-out: Linezolid % Maximum inhibition relative to negative control) worked out at 81.8%; in experiment [3] (Linezolid concentration 1 mM, negative control DMSO, p 0.000720, read-out: Linezolid % Maximum inhibition relative to negative control), 26.1%; in experiment [4] (HT-144 cells, Linezolid concentration 1 mM, negative control DMSO, p 0.00250, read-out: Linezolid % Maximum inhibition relative to negative control) it was 90.7%. The inhibition at 412 µM in experiment [2] stood at 14.5%.

In the case of `CC(=O)O[C@H]1C(=O)[C@@]2(C)[C@H]([C@H](OC(=O)c3ccccc3)[C@]3(O)C[C@H](OC(=O)[C@H](O)[C@@H](NC(=O)c4ccccc4)c4ccccc4)C(C)=C1C3(C)C)[C@]1(OC(C)=O)CO[C@@H]1C[C@@H]2O` [Paclitaxel], the inhibition at 0.1 µM in experiment [1] (A 172, A172 cells, 0.1 μM paclitaxel (positive control), read-out: Paclitaxel % Maximum inhibition relative to negative control) turned out to be 92.9%; in experiment [3] (0.1 μM paclitaxel (positive control), read-out: Paclitaxel % Maximum inhibition relative to negative control), 90.8%; in experiment [4] (HT-144 cells, 0.1 μM paclitaxel (positive control), read-out: Paclitaxel % Maximum inhibition relative to negative control), 86.9%.
